Measured values: PubChem BioAssay AID248 (DTP/NCI, 2004)
Inconclusive results and toxic doses are left out. Cut-off read from the data, not from the text of the source: active = T/C of 150% or more; inactive = T/C below 125%.

Tested on: L1210 leukemia ip in BDF1 mice, survival T/C
Experiment: NCI In Vivo Anticancer Drug Screen. Data for tumor model L1210 Leukemia (intraperitoneal) in B6D2F1 (BDF1) mice
Details: endpoint: mean survival time, higher = longer survival
Outline: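 Tumor was transplanted into mice, which were then dosed with test compound or vehicle alone. Survival was recorded for each group, and the treated figure was expressed relative to the control figure.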

[1] = dose: 100.0 mg/kg/injection, schedule: Q04DX003 (ip), vehicle: saline
[2] = dose: 200.0 mg/kg/injection, schedule: Q04DX003 (ip), vehicle: saline
[3] = dose: 100.0 mg/kg/injection, schedule: Q04DX003 (ip), vehicle: saline with Tween-80
[4] = dose: 200.0 mg/kg/injection, schedule: Q04DX003 (ip), vehicle: saline with Tween-80
[5] = dose: 400.0 mg/kg/injection, schedule: Q04DX003 (ip), vehicle: saline with Tween-80
[6] = dose: 100.0 mg/kg/injection, schedule: Q04DX003 (ip), vehicle: steriod suspending solution
[7] = dose: 200.0 mg/kg/injection, schedule: Q04DX003 (ip), vehicle: steriod suspending solution
[8] = dose: 400.0 mg/kg/injection, schedule: Q04DX003 (ip), vehicle: steriod suspending solution
[9] = dose: 50.0 mg/kg/injection, schedule: Q01DX009 (ip), vehicle: saline
[10] = dose: 100.0 mg/kg/injection, schedule: Q01DX001 (ip), vehicle: saline
[11] = dose: 100.0 mg/kg/injection, schedule: Q01DX009 (ip), vehicle: saline
[12] = dose: 200.0 mg/kg/injection, schedule: Q01DX001 (ip), vehicle: saline

Measured: T/C

CC(=O)OCC1OC(N2C(=O)/C(=C/c3ccc(N(C)C)cc3)SC2=S)C(OC(C)=O)C(OC(C)=O)C1OC(C)=O (configuration not stated)
inactive: dose: 25.0 mg/kg/injection, schedule: Q01DX005 (ip), vehicle: other 100 % of control | dose: 50.0 mg/kg/injection, schedule: Q01DX005 (ip), vehicle: other 98 % of control | dose: 100.0 mg/kg/injection, schedule: Q01DX005 (ip), vehicle: other 94 % of control | dose: 200.0 mg/kg/injection, schedule: Q01DX005 (ip), vehicle: other 95 % of control | dose: 400.0 mg/kg/injection, schedule: Q01DX005 (ip), vehicle: other 93 % of control

O=P(OCc1ccccc1)(N(CCCl)CCCl)N1CCCC1 (configuration not stated)
inactive: dose: 16.0 mg/kg/injection, schedule: Q01DX Z (ip), vehicle: saline 92 % of control | dose: 32.0 mg/kg/injection, schedule: Q01DX Z (ip), vehicle: saline 90 % of control | dose: 64.0 mg/kg/injection, schedule: Q01DX Z (ip), vehicle: saline 101 % of control | dose: 128.0 mg/kg/injection, schedule: Q01DX Z (ip), vehicle: saline 106 % of control

CC(=O)N(NC(=O)c1ccccn1)C(C)=O
inactive: dose: 100.0 mg/kg/injection, schedule: Q01DX001 (ip), vehicle: water 97 % of control | dose: 200.0 mg/kg/injection, schedule: Q01DX001 (ip), vehicle: water 106 % of control

CCOC(=O)Cc1ccc(CC(=O)OCC)cc1
inactive: dose: 75.0 mg/kg/injection, schedule: Q04DX003 (ip), vehicle: saline 100 % of control | dose: 150.0 mg/kg/injection, schedule: Q04DX003 (ip), vehicle: saline 105 % of control | dose: 300.0 mg/kg/injection, schedule: Q04DX003 (ip), vehicle: saline 96 % of control

O=C1NC(c2ccccc2)(c2ccccc2)C(=O)N1CCCl
inactive: dose: 100.0 mg/kg/injection, schedule: Q01DX009 (ip), vehicle: acetone 102 % of control | [1] 101 % of control | dose: 200.0 mg/kg/injection, schedule: Q01DX009 (ip), vehicle: acetone 101 % of control | [2] 95 % of control | dose: 400.0 mg/kg/injection, schedule: Q01DX009 (ip), vehicle: acetone 104 % of control | dose: 400.0 mg/kg/injection, schedule: Q04DX003 (ip), vehicle: saline 110 % of control

CCCCCCCCCCOc1ccc2ccccc2c1
inactive: [3] 100 % of control | [4] 94 % of control | [5] 91 % of control

O=C(c1ccccc1)c1ccc[n+](Cc2c(Cl)cccc2Cl)c1
inactive: dose: 75.0 mg/kg/injection, schedule: Q01DX001 (ip), vehicle: saline 101 % of control

C[C@]12CC[C@H](O)CC1=CC[C@@H]1[C@@H]2CC[C@]2(C)c3nc4ccccc4cc3C[C@@H]12
inactive: dose: 15.6 mg/kg/injection, schedule: Q01DX Z (sc), vehicle: steriod suspending solution 94 % of control | dose: 31.3 mg/kg/injection, schedule: Q01DX Z (sc), vehicle: steriod suspending solution 93 % of control | dose: 62.5 mg/kg/injection, schedule: Q01DX Z (sc), vehicle: steriod suspending solution 94 % of control | dose: 100.0 mg/kg/injection, schedule: Q01DX009 (sc), vehicle: steriod suspending solution 94 % of control | [6] 98 % of control | dose: 125.0 mg/kg/injection, schedule: Q01DX Z (sc), vehicle: steriod suspending solution 96 % of control | dose: 200.0 mg/kg/injection, schedule: Q01DX009 (sc), vehicle: steriod suspending solution 92 % of control | [7] 107 % of control | dose: 250.0 mg/kg/injection, schedule: Q01DX Z (sc), vehicle: steriod suspending solution 104 % of control | dose: 400.0 mg/kg/injection, schedule: Q01DX009 (sc), vehicle: steriod suspending solution 89 % of control | [8] 106 % of control | dose: 500.0 mg/kg/injection, schedule: Q01DX Z (sc), vehicle: steriod suspending solution 94 % of control

COC(=O)c1cc(Cl)ccc1OCC(=O)NCc1ccc(Cl)cc1
inactive: [3] 89 % of control | [4] 102 % of control | [5] 88 % of control

O=C(C[n+]1ccccc1)c1ccc(Br)cc1
inactive: [9] 101 % of control | [10] 101 % of control | [11] 105 % of control

NC(=O)c1c2n(c3ncnc(N)c13)C1OC(CO)C(O)C1S2 (configuration not stated)
inactive: dose: 25.0 mg/kg/injection, schedule: Q01DX009 (ip), vehicle: water 91 % of control | dose: 50.0 mg/kg/injection, schedule: Q01DX009 (ip), vehicle: water 91 % of control

CC[N+](C)(C)c1ncnc2nc[nH]c12
inactive: [9] 103 % of control | dose: 50.0 mg/kg/injection, schedule: Q04DX003 (ip), vehicle: saline 95 % of control | [10] 106 % of control | [11] 110 % of control | [1] 100 % of control | [12] 111 % of control | [2] 96 % of control

COc1cc(NC(=O)CC(C)=O)c(OC)cc1Cl
inactive: [3] 100 % of control | [4] 102 % of control | [5] 102 % of control

CC(=O)OCC(=O)[C@@]1(O)CC[C@H]2[C@@H]3C[C@@H](C)C4=CC(=O)C=C[C@]4(C)[C@H]3[C@@H](O)C[C@@]21C
inactive: dose: 75.0 mg/kg/injection, schedule: Q01DX009 (sc), vehicle: steriod suspending solution 92 % of control | [6] 97 % of control | dose: 100.0 mg/kg/injection, schedule: Q04DX003 (sc), vehicle: steriod suspending solution 100 % of control | dose: 150.0 mg/kg/injection, schedule: Q01DX009 (sc), vehicle: steriod suspending solution 92 % of control | [7] 91 % of control | dose: 200.0 mg/kg/injection, schedule: Q04DX003 (sc), vehicle: steriod suspending solution 102 % of control | dose: 300.0 mg/kg/injection, schedule: Q01DX009 (sc), vehicle: steriod suspending solution 92 % of control | [8] 94 % of control | dose: 400.0 mg/kg/injection, schedule: Q04DX003 (sc), vehicle: steriod suspending solution 103 % of control

O=C(O)CN1C(=O)CN=C(c2ccccn2)c2cc(Cl)ccc21
inactive: dose: 100.0 mg/kg/injection, schedule: Q01DX009 (ip), vehicle: Klucel (hydroxypropylcellulose) (HPC) 99 % of control | dose: 100.0 mg/kg/injection, schedule: Q04DX003 (ip), vehicle: Klucel (hydroxypropylcellulose) (HPC) 100 % of control | dose: 200.0 mg/kg/injection, schedule: Q01DX009 (ip), vehicle: Klucel (hydroxypropylcellulose) (HPC) 100 % of control | dose: 200.0 mg/kg/injection, schedule: Q04DX003 (ip), vehicle: Klucel (hydroxypropylcellulose) (HPC) 100 % of control | dose: 400.0 mg/kg/injection, schedule: Q01DX009 (ip), vehicle: Klucel (hydroxypropylcellulose) (HPC) 97 % of control | dose: 400.0 mg/kg/injection, schedule: Q04DX003 (ip), vehicle: Klucel (hydroxypropylcellulose) (HPC) 97 % of control

CC1Cn2ccc(=O)nc2S1 (configuration not stated)
inactive: dose: 50.0 mg/kg/injection, schedule: Q01DX001 (ip), vehicle: saline 112 % of control | [10] 110 % of control | [12] 105 % of control
